What was measured:
[1] = biological target: T1, p53/hDM2 interaction (Homo sapiens, UniProt Q00987); test: Fluorescence anisotropy (FA) assay, displacement of p53_15–31Flu from hDM2_17–126; type: binding; conditions: for IC50 against the p53/hDM2 interaction as determined by a FA assay / IC50: 150 nM hDM2_17–126, 50 nM p53_15–31Flu, 30 min, room temperature; for effect on fluorescence anisotropy / p53/hDM2 interaction: serial dilutions of compound, hDM2_17–126 with p53_15–31Flu; for IC50: read-out: IC50 against the p53/hDM2 interaction as determined by a FA assay
T1 construct: Expression of hDM2_17–126 recombinant fragment was performed as described previously; made in house
Experimental: To experimentally test the library of the organo-metallic iridium(III) compounds as p53/hDM2 PPI inhibitors, a fluorescence anisotropy (FA) assay was performed as previously described. hDM2_17–126 (recombinant fragment) was incubated with fluorescein-labelled p53 peptide (p53_15–31Flu) and serial dilutions of the organometallic iridium(III) compounds.
Figure 2 FA titration data of 1 1 was incubated with 150 nM hDM2_17–126 recombinant fragment and 50 nM fluorescein-labelled p53 peptide (p53_15–31Flu), and fluorescence anisotropy was measured at 480ex/535em.
Expression of hDM2_17–126 recombinant fragment was performed as described previously. Fluorescence anisotropy assays were used to study the displacement of p53 from hDM2 by organometallic compounds. The experiments were performed in triplicate in a volume of 60 μL of the assay buffer (40 mM Na3PO4, pH 7.50, 200 mM NaCl, 0.02 mg/mL BSA) in black flat-bottom 384-well plates. Different concentrations of organometallic compounds were diluted in the assay buffer containing 150 nM hDM2 and 50 nM p53_15–31Flu (Ac-[…](Flu)-NH2, Peptide Protein Research Ltd.) and incubated at room temperature for 30 min. The intensity and anisotropy was monitored at 480ex/535em ([…] bandwidth) using a Perkin Elmer EnvisionTM 2103 MultiLabel plate reader. The data was analyzed according to published methods.

[2] = tested on: T2, p53/hDM2 interaction; test: Pull-down assay of p53-Flag/hDM2-myc in A375 cells; type: cell-based, human; conditions: for effect of isolated ligands on the p53/hDM2 interaction: Supplementary Figure S4
T2 construct: host or cells: A375 cells
Experimental: A pull-down assay was conducted to further examine the effect of 1 on the p53/hDM2 interaction. A375 cells were co-transfected with cDNAs encoding p53-Flag and hDM2-myc fusion proteins. After 6 h of treatment with NVP-CGM097 or 1, p53/hDM2 complexes were immunoprecipitated using anti-Flag magnetic beads and analysed by immunoblotting.
A375 cells seeded in 6-well plates were co-transfected with pcDNA-Flag-p53 (Addgene) and pCMV-myc3-hDM2 (Addgene) for 6 h using TurboFect transfection reagent following the instruction from manufacturer. Cells were then cultured in Dulbecco's Modified Eagle's Medium (DMEM) complete medium overnight. Serial dilutions of organometallic compounds in low FBS buffer were placed into the wells, and incubated with cells for additional 6 h. Protein samples were collected, and the concentration in the supernatant was determined with the bicinchoninic acid (BCA) method. The […] of p53/hDM2 in the protein samples were pulled down using anti-Flag magnetic beads to capture the FLAG fusion proteins (Sigma) as previously described. The protein-binding beads were washed three time with TBS buffer (50 mM Tris HCl, 150 mM NaCl, pH 7.4) to remove non-specifically bound proteins, and subsequently subjected to the sodium dodecyl sulfate-polyacrylamide gel electrophoresis (SDS-PAGE) by detection with anti-Flag (1:1000, Sigma-Aldrich) and anti-myc antibodies (1:1000, Beyotime).

[3] = tested on: p53 and hDM2 protein expression levels; test: Immunoblotting of p53 and hDM2 protein expression in A375 cells; type: cell-based, human; conditions: for effect on hDM2 and p53 protein expression levels: 6 h, up to the highest concentration of 1 μM
Experimental: To assess whether 1 suppressed p53 or hDM2 protein expression levels, resulting in a decrease in the levels of precipitated protein detected in the pull-down assay, an immunoblotting experiment was performed.

[4] = biological target: T3, hDM2(17-126) recombinant fragment (human, UniProt Q00987 17-126); test: fluorescence polarisation; fluorescence anisotropy competition: 150 nM hDM2(17-126) and 50 nM p53(15-31)Flu with serial dilutions of iridium(III) compounds; 40 mM Na3PO4 pH 7.50, 200 mM NaCl, 0.02 mg/mL BSA; room temperature, 30 min; 480ex/535em; conditions: both partners purified
T3 construct: human double minute 2 protein (hDM2, MDM2), human, residues 17-126; also called human double minute 2 protein; source: recombinant fragment, expressed as described previously [33]

Molecule: F[P-](F)(F)(F)(F)F.[Ir+3].[c-]1ccccc1-n1cccn1.[c-]1ccccc1-n1cccn1.c1ccc(-c2ccccn2)nc1 [Compound 3, 2, 2′-bipyridinebis(1-phenyl-1H-pyrazole)iridium(III) hexafluorophosphate]
- IC50 against the p53/hDM2 interaction as determined by a FA assay [1]: No noticeable binding
- effect on fluorescence anisotropy / p53/hDM2 interaction [1]: no noticeable effect

Molecule: Clc1cc2ccc[n+]3c2c2c1ccc[n+]2[Ir-3]312([c]3ccccc3-c3sc4ccccc4[n+]31)[c]1ccccc1-c1sc3ccccc3[n+]12.F[P-](F)(F)(F)(F)F [Compound 4, 5-chloro-1, 10-phenanthrolinebis(2-phenylbenzo[d]thiazole)iridium(III) hexafluorophosphate]
- IC50 against the p53/hDM2 interaction as determined by a FA assay [1]: No noticeable binding
- effect on fluorescence anisotropy / p53/hDM2 interaction [1]: no noticeable effect

Molecule: COc1cc2c(cc1OC(C)C)[C@H](c1ccc(Cl)cc1)N(c1ccc(N(C)C[C@H]3CC[C@H](N4CCN(C)C(=O)C4)CC3)cc1)C(=O)C2 [NVP-CGM097, reference compound]
- amount of precipitated hDM2 (pulled down with p53-Flag) ([2]; 6 h of treatment): decreased
- expression of hDM2 protein ([3]; 1 μM): significantly increased

Molecule: F[P-](F)(F)(F)(F)F.c1cc[c]2c(c1)-c1ccc3ccccc3[n+]1[Ir-3]213([c]2ccccc2-c2ccc4ccccc4[n+]21)[n+]1cccc2c4nccnc4c4ccc[n+]3c4c21 [Compound 5, pyrazino[2,3-f][1, 10]phenanthrolinebis(2-phenylquinoline)iridium(III) hexafluorophosphate]
- IC50 [1]: 21 µM
- effect on fluorescence anisotropy / p53/hDM2 interaction [1]: decreased significantly

Molecule: CCc1ccc(-c2ccccn2)cc1 [eppy, 2-(4-ethylphenyl)pyridine]
- effect of isolated ligands on the p53/hDM2 interaction [2]: Neither eppy nor dcphen ligands were found to have a significant effect
- effect on hDM2 and p53 protein expression levels [3]: Neither eppy nor dcphen ligands were found to have a significant effect

Molecule: Clc1cc2nc3c4cccnc4c4ncccc4c3nc2cc1Cl.F[P-](F)(F)(F)(F)F.Fc1c[c-]c(-c2ccccn2)c(F)c1.Fc1c[c-]c(-c2ccccn2)c(F)c1.[Ir+3] [Compound 6, 11, 12-dichlorodipyrido[3,2-a:2′,3′-c]phenazinebis(2-(2,4-difluorophenyl)pyridine)iridium(III) hexafluorophosphate]
- IC50 [1]: 33 µM
- effect on fluorescence anisotropy / p53/hDM2 interaction [1]: decreased significantly

Molecule: Clc1ccnc2c1ccc1c(Cl)ccnc12 [dcphen, 4,7-dichloro-1, 10-phenanthroline]
- effect of isolated ligands on the p53/hDM2 interaction [2]: Neither eppy nor dcphen ligands were found to have a significant effect
- effect on hDM2 and p53 protein expression levels [3]: Neither eppy nor dcphen ligands were found to have a significant effect

B1: fluorescein-labelled p53 peptide (p53 15-31 Flu) (peptide)
peptide: SQETFSDLWKLLPENNVC
modifications: N-terminal acetyl (Ac-); fluorescein on the C-terminal cysteine, C(Flu); C-terminal amide (-NH2)
notes: added C-terminal cysteine that carries the fluorescein; not part of p53 15-31; source: synthetic peptide, bought: Peptide Protein Research Ltd
- binding result [4]: binds
